Reference: patent publication US20200009118A1, “COMPOSITIONS AND METHODS FOR THE TREATMENTOF NEURODEGENERATIVE AND OTHER DISEASES” (Glialogix, Inc., priority 2017, published 2020)

Tests used:
[1] = test system: xCT mRNA in primary rat astrocyte cells; assay: qPCR of xCT mRNA in primary astrocytes; assay type: cell-based; settings: astrocyte media, control gene gamma-actin
Experimental: (§1) Primary rat astrocyte cells were purchased from All Cells (Catalog #RCTX-001F, Alameda, Calif.), thawed and resuspended in 13.4 ml of DMEM media (Catalog #12-614F, Lonza, Allendale, N.J.) supplemented with 15% v/v FBS (Catalog #F4135, Sigma-Aldrich, St. Louis, Mo.) and 560 μL aliquoted into wells in a 24-well plate. Cells were incubated at 37° C. with 5% CO2. For each qPCR experiment, 2-3 wells (approximately 42,000-63,000 cells) were transferred to a new 24-well plate with fresh astrocyte media, composed of 50% v/v DMEM, 50% v/v Neurobasal media (Catalog #12348-017), Life Technologies, supplemented with 2 mM glutamine, 300 μM L-cystine. Following 24 hours, cells were then mixed and aliquoted into 24 well plates at approximately 10,000 cells per well in the same media. Compounds to be tested were then added at the indicated concentrations and cells harvested 18 hours later by washing once with PBS (Catalog #P5493, Sigma-Aldrich) and then treated with 300 μl of StemProAccutase cell dissociation reagent (Catalog #A11105-01, Life Technologies) and incubated for 5-10 minutes at 37° C. PBS (300 μl) was added and the cells spun down in a microfuge for 5 minutes at 2,000×g at 4° C. The supernatant was removed and mRNA was isolated from the cells by using the Purelink microscale RNA extraction kit (Catalog #12183016, Life Technologies) according to the manufacturer's instructions. The mRNA resuspended in 12-22 μl of RNase-free water. cDNA was prepared by use of the Superscript VILO kit (Catalog #11755050, Life Technologies) according to the manufacturer's instructions. The cDNA was eluted in a final volume of 20 μl RNase-free water in and 4 μl was used for each qPCR reaction. qPCR reactions and primers were as described in Example 11.
(§2) To determine if tunicamycin increased levels of xCT mRNA, Tunicamycin (5 ng/ml) was added to the primary astrocyte cell cultures in astrocyte media. xCT gene expression was determined by qPCR after 18 hours of exposure to tunicamycin.
(§3) The Cycle threshold is abbreviated Ct. The change in Ct equals [Ct (minus test agent)−Ct (plus test agent)]. Changes in Ct of the test genes xCT and Lcn-2 are normalized by subtracting the change in Ct of the control gene, either gamma-actin or Hypoxanthine-guanine phosphoribosyl transferase (HPRT). Ct values are converted to absolute values by the formula: absolute value=2^^(normalized change in Ct). Absolute values are converted to percent change by multiplying the absolute value by 100.
(§4) Using the methods described in Example 11, various agents known to cause activation of neuroinflammatory cells and/or cause or reflect stress and damage to neurons, axons and/or oligodendrocytes were tested for causing an increase in xCT levels in primary rat astrocytes.

[2] = test system: Lcn-2 mRNA in primary rat astrocyte cells; assay: qPCR of Lcn-2 mRNA in primary astrocytes; assay type: cell-based; settings: astrocyte media, control gene gamma-actin
Experimental: as §1, §2, §3, §4

[3] = test system: 2D2-TCR MOG (2D2) mice; assay: 2D2 mouse model of optic neuritis, myelin staining of the optic nerve; assay type: in vivo; settings: for Number of animals, average myelin content score Low / Number of animals, average myelin content score high / Number of animals, average myelin content score moderate: sulfasalazine 200 mg/kg or memantine 5 mg/kg IP BID
Description: This model serves as an inducible model of optic neuritis with a high rate of penetrance. The development of optic neuritis was monitored by animal observation and histopathology.
Female 2D2 (strain C57BL/6-Tg(Tcra2D2,Tcrb2D2)1Kuch/J) and WT mice (C57BL/6) were purchased from The Jackson Laboratory. Each cohort size was 14 animals. Mice were delivered to Ophthy-DS (Kalamazoo, Mich.) under the supervision of Renovo Neural (Cleveland, Ohio) at 8-12 weeks of age and then acclimated for an additional 4 weeks before beginning the experiment. Animals were housed in pathogen-free, individually-ventilated, enriched cages on a 12 h:12 h light:dark cycle with food and water ad libitum. Mice were monitored daily for welfare and symptoms of optic neuritis.
After 4 weeks of acclimation, animals were randomized by weight into 4 groups of 14 animals each. To induce optic neuritis, 200 ng of Pertussis toxin was injected into the 2D2 animals on days 1 and 3 as described by Guan et al. Dosing of vehicle or treatment compounds began at day 1. The four cohorts are: • (1) WT mice (C57BL/6) treated with vehicle (200 μl saline IP, BID). This cohort serves as a control for the readouts of optic neuritis disease. • (2) 2D2 mice vehicle treated with vehicle (200 μl saline IP, BID). […] The memantine-treated group served as a control for anti-glutamatergic therapy in the 2D2 model of optic neuritis.
On day 30, animals were euthanized and perfused. Optic nerves and retinas were dissected out and embedded in paraffin and sections mounted on slides. 5-7 sections of the optic nerve (from one eye) from ten animals in each cohort were stained by Toluidine Blue. Histopathological analysis of the slides and quantitation of the myelin staining intensity was performed blinded by a board-certified pathologist, Dr. Igor Polyakov (Minneapolis, Minn.). Staining intensity of each slide was graded as either low, moderate or high. Both peripheral and central sections of the optic nerve were graded. The intensity of the myelin staining between the cohorts on a per section and a per animal basis was compared using chi-square and Fishers' exact test with a p<0.05 considered significant.
On a per animal basis, this yielded 20 scores per cohort: average score per section×2 scores per animal (peripheral or central)×10 animals per cohort. On a per section basis, this yielded approximately 110 score per cohort: score per section×5-7 sections per animal×2 scores per section (peripheral or central)×10 animals per cohort.

[4] = Total (central + peripheral, 20 scores), day 30
[5] = per section basis, Central Region, day 30
[6] = per section basis, Peripheral Region, day 30
[7] = per section basis, Total, day 30

Q: “A-beta 1-40: A-beta 1-40 peptide, misfolded/aggregated protein” was tested. Which “xCT, Change in Ct normalized to control gene” value ([1]; 2 μg/ml) did it give?
A: 0.276

Q: What about the “xCT, Fold change normalized” value ([1]; 2 μg/ml) of the same molecule?
A: 1.21

Q: What about the “xCT, Percent change normalized” value ([1]; 2 μg/ml) of the same molecule?
A: 121%

Q: What about the “xCT, Change in Ct normalized to control gene” value ([1]; 20 ug/ml) of the same molecule?
A: 0.951

Q: What about the “xCT, Fold change normalized” value ([1]; 20 ug/ml) of the same molecule?
A: 1.93

Q: What about the “xCT, Percent change normalized” value ([1]; 20 ug/ml) of the same molecule?
A: 193%

Q: And the “Lcn-2, Percent change normalized” value ([2]; 2 μg/ml)?
A: 130%

Q: What about the “Lcn-2, Percent change normalized” value ([2]; 20 ug/ml) of the same molecule?
A: 140%

Q: For CC12CC3CC(C)(C1)CC(N)(C3)C2 [memantine], which “Number of animals, average myelin content score Low” value ([3]; Central Region, day 30) is on record?
A: 0

Q: And the “Number of animals, average myelin content score high” value ([3]; Central Region, day 30)?
A: 3

Q: And the “Number of animals, average myelin content score moderate” value ([3]; Central Region, day 30)?
A: 7

Q: And the “Number of animals, average myelin content score Low” value ([3]; Peripheral Region, day 30)?
A: 2

Q: What about the “Number of animals, average myelin content score high” value ([3]; Peripheral Region, day 30) of the same molecule?
A: 3

Q: And the “Number of animals, average myelin content score moderate” value ([3]; Peripheral Region, day 30)?
A: 5

Q: And the “Number of animal scores, myelin content High” value [3, 4]?
A: 6

Q: And the “Number of animal scores, myelin content Low” value [3, 4]?
A: 2

Q: And the “Number of animal scores, myelin content Moderate” value [3, 4]?
A: 12

Q: And the “myelin content compared to the vehicle-treated 2D2 animals” value ([3]; optic nerve, day 30)?
A: highly significant increase in myelin content

Q: And the “Number of sections, myelin content Low” value [3, 5]?
A: 0

Q: And the “Number of sections, myelin content high” value [3, 5]?
A: 14

Q: What about the “Number of sections, myelin content moderate” value [3, 5] of the same molecule?
A: 41

Q: What about the “Number of sections, myelin content Low” value [3, 6] of the same molecule?
A: 10

Q: And the “Number of sections, myelin content high” value [3, 6]?
A: 14

Q: And the “Number of sections, myelin content moderate” value [3, 6]?
A: 31

Q: And the “Number of section scores, myelin content High” value [3, 7]?
A: 28

Q: And the “Number of section scores, myelin content Low” value [3, 7]?
A: 10

Q: And the “Number of section scores, myelin content Moderate” value [3, 7]?
A: 72

Q: And the “Percent scores, Myelin content-Total High” value ([3]; per-animal basis)?
A: 30%

Q: What about the “Percent scores, Myelin content-Total Low” value ([3]; per-animal basis) of the same molecule?
A: 10%

Q: What about the “Percent scores, Myelin content-Total Moderate” value ([3]; per-animal basis) of the same molecule?
A: 60%

Q: And the “Percent scores, Myelin content-Total High” value ([3]; per-section basis)?
A: 25%

Q: And the “Percent scores, Myelin content-Total Low” value ([3]; per-section basis)?
A: 9%

Q: And the “Percent scores, Myelin content-Total Moderate” value ([3]; per-section basis)?
A: 65%

Q: Which results are given for OO [H2O2, Hydrogen Peroxide]?
A: xCT, Change in Ct normalized to control gene ([1]; 5 μM): 2.484; xCT, Fold change normalized ([1]; 5 μM): 5.59; xCT, Percent change normalized ([1]; 5 μM): 559%; xCT, Change in Ct normalized to control gene ([1]; 50 μM): 2.588; xCT, Fold change normalized ([1]; 50 μM): 6.01; xCT, Percent change normalized ([1]; 50 μM): 601%; Lcn-2, Percent change normalized ([2]; 5 μM): 15%; Lcn-2, Percent change normalized ([2]; 50 μM): 19%
